Test results published in PubChem BioAssay (NCI).
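Protocol summary: plate cells (96-well), add compound at 5 concentrations, incubate 48 h, interpolate endpoints linearly. Abbreviation: GI50, concentration required for 50% inhibition of growth. TGI: total growth inhibition.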

Assays:
Assay in all cases: growth of human tumour cells (NCI), 48 h
A498 renal = test system: A498 renal
A549 NSCLC = test system: A549 NSCLC
K-562 leukemia = test system: K-562 leukemia
MALME-3M melanoma = test system: MALME-3M melanoma
MDA-MB-435 = test system: MDA-MB-435
NCI-H460 lung = test system: NCI-H460 lung
RPMI-8226 leukemia = test system: RPMI-8226 leukemia
SF-268 CNS = test system: SF-268 CNS
T-47D breast = test system: T-47D breast
UACC-62 melanoma = test system: UACC-62 melanoma

Compound	GI50 (A498 renal)	TGI (A498 renal)	GI50 (A549 NSCLC)	TGI (A549 NSCLC)	GI50 (K-562 leukemia)	TGI (K-562 leukemia)	GI50 (MALME-3M melanoma)	TGI (MALME-3M melanoma)	GI50 (MDA-MB-435)	TGI (MDA-MB-435)	GI50 (NCI-H460 lung)	TGI (NCI-H460 lung)	GI50 (RPMI-8226 leukemia)	TGI (RPMI-8226 leukemia)	GI50 (SF-268 CNS)	TGI (SF-268 CNS)	GI50 (T-47D breast)	TGI (T-47D breast)	GI50 (UACC-62 melanoma)	TGI (UACC-62 melanoma)
CCCCC[C@H]1C/C=C2/C(=O)C(Cl)=C[C@@H]2C/C=C\CCCC(=O)O1	0.546 µM	1.46 µM	0.625 µM	1.87 µM	0.116 µM	3.6 µM	0.573 µM	1.53 µM	0.337 µM	1.11 µM	0.629 µM	1.91 µM	0.171 µM	1.52 µM	0.803 µM	3.72 µM	0.554 µM	2.08 µM	0.411 µM	1 µM
C=C1C(=O)O[C@H]2[C@H]1CC/C(COC(=O)/C=C\C(=O)NCc1ccc(Cn3c(=O)sn(-c4ccc(Cl)cc4)c3=O)cc1)=C\CC[C@@]1(C)O[C@@H]21	0.741 µM	1.43 µM	0.871 µM	2.35 µM	0.409 µM	50 µM	0.852 µM	1.63 µM	0.647 µM	1.33 µM	0.811 µM	1.74 µM	0.27 µM	2.05 µM	0.71 µM	1.43 µM	0.881 µM	2.15 µM	0.724 µM	1.47 µM
CC[Si](CC)(CC)OC1[C@@H](O[Si](CC)(CC)CC)[C@@H](CNC(=O)NC)O[C@H]1n1cnc2c(NC(=O)Nc3ccccc3)ncnc21 (some centres undefined)	1.61 µM	6.38 µM	3.14 µM	> 100 µM	3.49 µM	> 100 µM	2.39 µM	6.67 µM	3.17 µM	> 100 µM	2.48 µM	6.61 µM	2.13 µM	5.33 µM	4.67 µM	> 100 µM	4.47 µM	> 100 µM	2.88 µM	25.7 µM
CCOC(=O)CCSC1=CC(=O)c2nc3ccccc3c3ccnc1c23	> 100 µM	> 100 µM	18.3 µM	77.4 µM	26.9 µM	> 100 µM	17.5 µM	35.4 µM	17.8 µM	37.7 µM	13.4 µM	50.1 µM	9.55 µM	> 100 µM	17.1 µM	39.4 µM	24.3 µM	76 µM	15.8 µM	31.4 µM
CC(C)(C)OC(=O)N1Cc2cc3ccccc3nc2C1CO (centres undefined)	> 100 µM	> 100 µM	> 100 µM	> 100 µM	> 100 µM	> 100 µM	> 100 µM	> 100 µM	> 100 µM	> 100 µM	> 100 µM	> 100 µM	> 100 µM	> 100 µM	> 100 µM	> 100 µM	> 100 µM	> 100 µM	> 100 µM	> 100 µM
COc1cccc(-c2nn(-c3ccccc3)cc2-c2ccnc(NCCCNS(=O)(=O)c3ccc(C(F)(F)F)cc3)c2)c1	3.8 µM	> 100 µM	6.65 µM	> 100 µM	3.06 µM	> 100 µM	3.4 µM	> 100 µM	4.2 µM	> 100 µM	6 µM	> 100 µM	3.63 µM	> 100 µM	6.88 µM	> 100 µM	2.54 µM	9.11 µM	7.08 µM	> 100 µM
Cc1ccc(NC2=CC(=O)C(=O)c3ccccc32)cc1	1.32 µM	5.41 µM	1.72 µM	3.68 µM	3.47 µM	> 100 µM	1.63 µM	3.17 µM	1.74 µM	3.2 µM	1.7 µM	3.94 µM	3.55 µM	> 100 µM	2.78 µM	12.1 µM	3.68 µM	18.1 µM	1.73 µM	3.23 µM
CCN(CC)CCCNc1cc(OC)c(OC)c2cccnc12	18.6 µM	42 µM	10.5 µM	38.1 µM	5.22 µM	> 100 µM	12.8 µM	31.1 µM	3.05 µM	14.4 µM	1.47 µM	16.9 µM	11.2 µM	40.7 µM	14.4 µM	46.3 µM	16.4 µM	42 µM	3.16 µM	28.7 µM
O=C(Nc1cc2cc([N+](=O)[O-])ccc2oc1=O)c1cccs1	–	> 100 µM	–	> 100 µM	–	> 100 µM	–	> 100 µM	–	70.8 µM	–	> 100 µM	–	> 100 µM	–	> 100 µM	–	> 100 µM	–	–
